In US20130029981A1, “COMPOUNDS, COMPOSITIONS, AND METHODS FOR CONTROLLING BIOFILMS” (Katholieke Universiteit Leuven, priority 2009, published 2013):
Where “and” joins values, the source holds several entries; their conditions need not be identical. Equal values may be shown once. Read-outs that look alike come from different tables or passages of the source.

How the values were obtained:
S. Typhimurium ATCC14028 = test: Static peg assay for prevention of biofilm formation (Calgary device, crystal violet); type: cell-based, Salmonella Typhimurium; conditions: 25° C.
Outline: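 Calgary 96-peg device, ca. 10^6 cells of ATCC14028 per well in TSB 1/20 for 24 h at 25° C (or 48 h at 16° C, medium and compound renewed at 24 h), or in CFA broth for 24 h at 37° C, static, with two-fold compound dilutions. Crystal violet stain, acetic acid extraction, OD570. IC50 from 2–3 independent experiments.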

[1] = test system: Pseudomonas aeruginosa PA14; test: as above; type: cell-based
Outline: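 P. aeruginosa PA14 overnight TSB culture diluted 1:100 into broth with two-fold compound dilutions, biofilms grown 24 h static on polystyrene pegs of a Calgary device at 25 °C (TSB 1/20), 30 °C or 37 °C (CFA and/or LBNS). Biofilm quantified by crystal violet, extracted with 30% acetic acid, A570.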

[2] = Table 11, read-out: IC50 (biofilm formation)
[3] = Table 14, read-out: IC50 biofilm inhibition
[4] = Table 18, read-out: S. Typhimurium IC50 (biofilm formation)
[5] = 25° C., Table 12, read-out: IC50 (biofilm formation)
[6] = 25° C., Table 14, read-out: IC50 biofilm inhibition
[7] = 25° C., Table 18, read-out: P. aeruginosa IC50 (biofilm formation)
[8] = 37° C., read-out: IC50 (biofilm formation)

Row | Structure (SMILES) | IC50 (S. Typhimurium ATCC14028; [2]) | IC50 (S. Typhimurium ATCC14028; [3]) | IC50 (S. Typhimurium ATCC14028; [4]) | IC50 [1, 5] | IC50 [1, 6] | IC50 [1, 7] | IC50 [1, 8] | also measured
1 | CCCCCCN1c2nccc[n+]2CC1(O)c1ccc([N+](=O)[O-])cc1.[Br-] (stereo not shown) [Compound 34] | 46.8 µM | 46.8 µM |  |  |  |  |  | IC50 (S. Typhimurium ATCC14028; 24 hours, Table 15, read-out: (1) IC50 (biofilm inhibition)): 54.7 µM; IC50 (S. Typhimurium ATCC14028; Table 16, read-out: S. Typhimurium IC50 (biofilm formation)): 54.7 µM; IC50 ([1]; 25° C., 24 hours, Table 15, read-out: (2) IC50 (biofilm inhibition)): 10.9 µM; IC50 ([1]; 25° C., Table 16, read-out: P. aeruginosa IC50 (biofilm formation)): 12.4 µM
2 | OC1(c2ccc(Cl)cc2)C[n+]2cccnc2N1C1CCCCC1.[Br-] (stereo not shown) [Compound 64] |  |  | 33 µM | 4.94 µM | 4.94 µM | 10 µM |  | IC50 (S. Typhimurium ATCC14028; Table 11, listed as R1=cyclohexyl, R3=4-Cl—Ph, R4=H, read-out: IC50 (biofilm formation)): 43.8 µM and 35.6 µM; IC50 (S. Typhimurium ATCC14028; Table 14, listed as R1=Cyclohexyl, R3=4-ClPh, R4=H, read-out: IC50 biofilm inhibition): 43.8 µM and 35.6 µM
3 | O=[N+]([O-])c1ccc(C2(O)C[n+]3cccnc3N2C2CCCCCCCCCCC2)cc1.[Br-] (stereo not shown) [Compound 69] | < 6.25 µM | < 6.25 µM | < 6.3 µM | 6.32 µM | 6.32 µM | 6.9 µM | 18.2 µM | 
4 | OC1(c2ccc(I)cc2)C[n+]2cccnc2N1Cc1ccccc1.[Br-] (stereo not shown) [Compound 73] |  |  |  | 8.61 µM | 8.61 µM |  | 175 µM | IC50 (S. Typhimurium ATCC14028; Table 11, listed as R1=Bn, R3=4-I—Ph, R4=H, read-out: IC50 (biofilm formation)): 30.7 µM and 26.9 µM; IC50 (S. Typhimurium ATCC14028; Table 14, listed as R1=Bn, R3=4-IPh, R4=H, read-out: IC50 biofilm inhibition): 26.9 µM; IC50 (S. Typhimurium ATCC14028; Table 14, listed as R1=Bn, R3=4-Iph, R4=H, read-out: IC50 biofilm inhibition): 30.7 µM; IC50 (S. Typhimurium ATCC14028; Table 19, read-out: IC50 (biofilm formation)): 36.7 µM
5 | OC1(c2ccc(-c3ccccc3)cc2)C[n+]2cccnc2N1C1CCCC1.[Br-] (stereo not shown) [R1=Cyclopentyl, R3=4-biphenylyl, R4=H, 1-cyclopentyl-2-hydroxy-2-(4-biphenylyl)-2,3-dihydro-1H-imidazo[1,2-a]pyrimidin-4-ium bromide] |  |  |  |  |  |  |  | IC50 (S. Typhimurium ATCC14028; Salmonella enterica, Table 11, read-out: IC50 (biofilm formation)): 14.9 µM; IC50 (S. Typhimurium ATCC14028; Salmonella enterica, Table 14, read-out: IC50 biofilm inhibition): 14.9 µM; IC50 ([1]; Pseudomonas aeruginosa, PA14, 25° C., Table 12, read-out: IC50 (biofilm formation)): 1.57 µM; IC50 ([1]; Pseudomonas aeruginosa, PA14, 25° C., Table 14, read-out: IC50 biofilm inhibition): 1.57 µM; IC50 ([1]; Pseudomonas aeruginosa, PA14, 37° C., read-out: IC50 (biofilm formation)): 62.1 µM
